Experimental data taken from patent publication US7776890B2, “1H-indazole compounds” (Eisai R&D Management Co., Ltd., priority 2005, dated 2010).

Target: T1, Human JNK 3 (Homo sapiens, UniProt P53779)
T1 construct: made in house; host or cells: Escherichia coli
Assay: Determination of JNK 3 Inhibition
Assay type: biochemical
Conditions: 50% inhibitory concentration on the enzymatic activity of JNK; GST-JNK 3, substrate GST-c-Jun, 3.33 μM of ATP, 30 minutes
Description: Human JNK 3 was expressed as a fusion protein (GST-JNK 3) with glutathione S-transferase (GST) in Escherichia coli and was purified using glutathione Sepharose 4B beads. The amino acid sequence 1-169 of c-Jun was […] as a fusion protein (GST-c-Jun) with GST in Escherichia coli, was purified using glutathione Sepharose 4B beads and was used as a substrate. A test compound was diluted with 100% dimethyl sulfoxide into 10 mM and was then further diluted with 10% aqueous dimethyl sulfoxide solution to yield a dilution series. To each well of 96-well OPTI plate (available from Packard) were placed 20 μl of the diluted compound, 30 μl of a substrate solution (1.2 μg of GST-c-Jun, […], 0.2 μCi of [γ-^33P]ATP, 25 mM of HEPES pH=7.5, 10 mM of magnesium acetate, and 3.33 μM of ATP), and 50 μl of an enzyme solution (0.04 μg of GST-JNK 3, 25 mM of HEPES pH=7.5, and 10 mM magnesium acetate) up to 100 μl, and the mixture was allowed to react for 30 minutes. After terminating the reaction by adding 100 μl of a reaction terminator (80 mM ATP, 50 mg/ml glutathione SPA beads (available from Amersham Pharmacia Biotech)), the reaction mixture was shaken for 30 minutes. The mixture was centrifuged at room temperature at 1000×g for 5 minutes, and the emission intensity thereof was determined on a TopCount™ illuminator (available from Packard). The activity is expressed by the 50% inhibitory concentration on the enzymatic activity of JNK, i.e., IC50 (nM).

T1 sequence (P53779 whole entry): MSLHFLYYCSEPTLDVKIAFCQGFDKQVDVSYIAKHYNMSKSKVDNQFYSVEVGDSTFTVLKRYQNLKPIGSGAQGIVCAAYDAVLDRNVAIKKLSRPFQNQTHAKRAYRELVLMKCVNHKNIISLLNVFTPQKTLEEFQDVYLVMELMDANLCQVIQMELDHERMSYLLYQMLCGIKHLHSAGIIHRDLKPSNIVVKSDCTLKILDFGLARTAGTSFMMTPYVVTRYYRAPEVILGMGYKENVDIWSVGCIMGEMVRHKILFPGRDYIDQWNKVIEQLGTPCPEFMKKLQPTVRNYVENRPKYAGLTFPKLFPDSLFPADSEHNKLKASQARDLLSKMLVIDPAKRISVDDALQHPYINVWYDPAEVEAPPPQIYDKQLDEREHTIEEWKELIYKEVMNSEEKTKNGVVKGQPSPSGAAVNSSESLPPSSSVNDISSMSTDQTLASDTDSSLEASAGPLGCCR

IC50 [nM] | SMILES
109 | O=C(Nc1ccc2[nH]nc(-c3cc4ccccc4o3)c2c1)c1ccco1 [Example I-48, N2-(3-Benzo[b]furan-2-yl-1H-5-indazolyl)-2-furamide]
100 | COc1c(C(=O)NCc2ccco2)ccc2[nH]nc(-c3cccc(F)c3)c12 [Example II-5, 3-(3-Fluoro-phenyl)-4-methoxy-1H-indazole-5-carboxylic acid (furan-2-ylmethyl)-amide]
55 | O=C(Nc1ccc2[nH]nc(-c3ccc4ccccc4c3)c2c1)C1CCNCC1 [Example I-104, N4-[3-(2-Naphthyl)-1H-5-indazolyl]-4-piperidinecarboxamide]
52 | O=C(Nc1ccc2[nH]nc(-c3cc4ccccc4s3)c2c1)C1CCOC1 (centres unmarked) [Example I-55, N3-(3-Benzo[b]thiophen-2-yl-1H-5-indazolyl)tetrahydro-3-furancarboxamide]
143 | COc1cccc(C(=O)NCc2cc3c(-c4ccc5ccccc5c4)n[nH]c3cc2F)c1 [Example II-208, N-{6-Fluoro-3-naphthalen-2-yl-1H-indazol-5-ylmethyl}-3-methoxy-benzamide]
215 | CS(=O)(=O)Nc1cc2c(-c3cc4ccccc4s3)n[nH]c2cc1F [Example II-218, N-(3-Benzo[b]thiophen-2-yl-6-fluoro-1H-indazol-5-yl)-methanesulfonamide]
86 | O=C(Nc1cc2c(-c3ccc4ccccc4c3)n[nH]c2cc1F)C1CC1 [Example II-184, Cyclopropanecarboxylic acid {6-fluoro-3-naphthalen-2-yl-1H-indazol-5-yl}-amide]
54 | O=C(NCCCN1CCCC1=O)c1ccc2[nH]nc(-c3cc4ccccc4s3)c2c1 [Example I-137, N5-[3-(2-Oxotetrahydro-1H-1-pyrrolyl)propyl]-3-benzo[b]thiophen-2-yl-1H-5-indazolecarboxamide]
71 | O=C(Cc1ccsc1)Nc1cc(F)c2[nH]nc(-c3cccc(F)c3)c2c1 [Example II-288, N-[7-Fluoro-3-(3-fluorophenyl)-1H-indazol-5-yl]-2-thiophen-3-ylacetamide]
80 | O=C(Cc1ccsc1)Nc1ccc2[nH]nc(-c3cn4ccccc4n3)c2c1 [Example I-163, N1-(3-Imidazo[1,2-a]pyridin-2-yl-1H-5-indazolyl)-2-(3-thienyl)acetamide]
84 | CCCOc1c(C(=O)N[C@H](CO)C(C)C)ccc2[nH]nc(-c3cc4ccccc4o3)c12 [Example II-281, 3-Benzo[b]furan-2-yl-4-propoxy-1H-indazole-5-carboxylic acid ((1S)-1-hydroxymethyl-2-methyl-propyl)-amide]
194 | O=C(Cc1cccs1)Nc1cc2c(-c3ccc4ccccc4c3)n[nH]c2cc1F [Example II-189, N-(6-Fluoro-3-naphthalen-2-yl-1H-indazol-5-yl)-2-thiophen-2-yl-acetamide]
113 | O=C(c1ccccc1)c1ccc2[nH]nc(-c3cccc(F)c3)c2c1 [Example I-26, [3-(3-Fluorophenyl)-1H-5-indazolyl](phenyl)methanone]
148 | O=C(N[C@@H]1CCOC1=O)c1cc(F)c2[nH]nc(-c3ccc4ccccc4c3)c2c1 [Example II-259, 7-Fluoro-3-naphthalen-2-yl-1H-indazole-5-carboxylic acid [(3R)-2-oxo-tetrahydrofuran-3-yl]amide]
143 | C[C@H](NC(=O)c1ccc2[nH]nc(-c3cc4ccccc4s3)c2c1F)C(N)=O [Example II-126]
221 | O=C(NC1CC1)c1ccc2[nH]nc(-c3cccc(F)c3)c2c1 [Example I-143, N5-Cyclopropyl-3-(3-fluorophenyl)-1H-5-indazolecarboxamide]
163 | CS(=O)(=O)Nc1ccc2[nH]nc(-c3ccc4ccccc4c3)c2c1 [Example I-94, N-[3-(2-Naphthyl)-1H-5-indazolyl]methanesulfonamide]
197 | CC(=O)c1cccc(-c2n[nH]c3ccc(C(=O)N[C@@H](C)C(N)=O)cc23)c1 [Example I-132, N5-[(1S)-2-Amino-1-methyl-2-oxoethyl]-3-(3-acetylphenyl)-1H-5-indazolecarboxamide]
137 | COc1c(C(=O)NCC2CC2)ccc2[nH]nc(-c3cc4ccccc4o3)c12 [Example II-93, 3-Benzo[b]furan-2-yl-4-methoxy-1H-indazole-5-carboxylic acid cyclopropylmethyl-amide]
51 | O=C(Cc1cccs1)Nc1ccc2[nH]nc(-c3cccc(F)c3)c2c1 [Example I-16, N1-[3-(3-Fluorophenyl)-1H-5-indazolyl]-2-(2-thienyl)acetamide]
